What is called DC50 is the concentration at which degradation of the target reaches its halfway point.

Structures are written as SMILES.

The target of the experiment is T1, HMG-CoA reductase (Homo sapiens, UniProt P04035).
T1 construct: endogenous in cells; host or cells: HepG2 (Korea Cell Line Bank)
T1 sequence (P04035 1-888): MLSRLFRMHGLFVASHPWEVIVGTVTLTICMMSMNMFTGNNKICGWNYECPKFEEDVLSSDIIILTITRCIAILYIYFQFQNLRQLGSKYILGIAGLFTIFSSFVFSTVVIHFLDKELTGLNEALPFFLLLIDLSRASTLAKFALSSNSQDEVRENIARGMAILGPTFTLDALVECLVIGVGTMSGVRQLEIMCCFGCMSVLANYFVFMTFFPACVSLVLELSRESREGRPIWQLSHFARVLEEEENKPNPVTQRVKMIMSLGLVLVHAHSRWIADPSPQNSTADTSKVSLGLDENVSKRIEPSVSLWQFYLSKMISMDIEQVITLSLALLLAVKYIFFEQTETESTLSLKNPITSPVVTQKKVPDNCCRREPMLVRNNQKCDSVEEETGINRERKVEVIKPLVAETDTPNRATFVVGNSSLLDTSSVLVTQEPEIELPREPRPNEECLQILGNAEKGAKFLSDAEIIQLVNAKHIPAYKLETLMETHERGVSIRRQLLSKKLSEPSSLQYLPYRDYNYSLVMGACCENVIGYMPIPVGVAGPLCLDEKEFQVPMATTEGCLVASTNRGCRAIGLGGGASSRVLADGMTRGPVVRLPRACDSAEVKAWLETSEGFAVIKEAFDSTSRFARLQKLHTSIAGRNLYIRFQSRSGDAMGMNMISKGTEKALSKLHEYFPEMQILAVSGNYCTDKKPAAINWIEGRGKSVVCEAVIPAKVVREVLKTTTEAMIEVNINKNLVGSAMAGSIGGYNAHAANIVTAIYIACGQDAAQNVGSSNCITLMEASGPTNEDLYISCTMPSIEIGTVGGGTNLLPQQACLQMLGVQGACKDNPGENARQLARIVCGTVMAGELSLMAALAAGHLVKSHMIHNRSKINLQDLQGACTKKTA
The experiment can be described thus: HMG-CoA reductase (HMGCR) degradation in HepG2 cells by western blotting. The experiment is classed as cell-based. Conditions: treated for 18 hours, ratio of HMG-CoA reductase to GAPDH, read-out: DC50. Summed up: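 Western blot read-out: HMGCR protein probed (1:500, 16 hours at 4° C) alongside GAPDH loading control on 15 μg BCA-normalised RIPA lysates. Lysates came from HepG2 cells (P105–P110) exposed for 18 hours to a 10-point, three-fold series starting at 3 μM.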
A general note: In western blotting, separated proteins are transferred to a membrane and probed.
Turning to `C[C@H]1C=C2C=C[C@H](C)[C@H](CC[C@@H]3C[C@@H](O[Si](C)(C)C(C)(C)C)CC(=O)O3)[C@H]2[C@@H](OC(=O)NCCCCN2CCC(Nc3cccc4c3C(=O)N(C3CCC(=O)NC3=O)C4=O)CC2)C1` (stereo partly drawn) [Compound 72, (1S,3R,7S,8S,8aR)-8-(2-((2R,4R)-4-((tert-butyldimethylsilyl)oxy)-6-oxotetrahydro-2H-pyran-2-yl)ethyl)-3,7-dimethyl-1,2,3,7,8,8a-hexahydronaphthalen-1-yl (4-(4-((2-(2,6-dioxopiperidin-3-yl)-1,3-dioxoisoindolin-4-yl)amino)piperidin-1-yl)butyl)carbamate], the half-maximal degradation concentration (DC50) is less than 50 nM. Consider `C[C@H]1C=C2C=C[C@H](C)[C@H](CC[C@@H]3C[C@@H](O)CC(=O)O3)[C@H]2[C@@H](OC(=O)NCCCCN2CCC(Nc3cccc4c3C(=O)N(C3CCC(=O)NC3=O)C4=O)CC2)C1` (stereo partly drawn) [Compound 73, (1S,3R,7S,8S,8aR)-8-(2-((2R,4R)-4-hydroxy-6-oxotetrahydro-2H-pyran-2-yl)ethyl)-3,7-dimethyl-1,2,3,7,8,8a-hexahydronaphthalen-1-yl (4-(4-((2-(2,6-dioxopiperidin-3-yl)-1,3-dioxoisoindolin-4-yl)amino)piperidin-1-yl)butyl)carbamate], for which the DC50 is less than 50 nM. Take `C[C@H]1C=C2C=C[C@H](C)[C@H](CC[C@@H]3C[C@@H](O[Si](C)(C)C(C)(C)C)CC(=O)O3)[C@H]2[C@@H](OC(=O)NCCCCCNC(=O)COc2cccc3c2C(=O)N(C2CCC(=O)NC2=O)C3=O)C1` (stereo partly drawn) [Compound 74, (1S,3R,7S,8S,8aR)-8-(2-((2R,4R)-4-((tert-butyldimethylsilyl)oxy)-6-oxotetrahydro-2H-pyran-2-yl)ethyl)-3,7-dimethyl-1,2,3,7,8,8a-hexahydronaphthalen-1-yl (5-(2-((2-(2,6-dioxopiperidin-3-yl)-1,3-dioxoisoindolin-4-yl)oxy)acetamido)pentyl)carbamate]: the DC50 is less than 50 nM. The result for `C[C@H]1C=C2C=C[C@H](C)[C@H](CC[C@@H]3C[C@@H](O)CC(=O)O3)[C@H]2[C@@H](OC(=O)NCCCCCNC(=O)COc2cccc3c2C(=O)N(C2CCC(=O)NC2=O)C3=O)C1` (stereo partly drawn) [Compound 75, (1S,3R,7S,8S,8aR)-8-(2-((2R,4R)-4-hydroxy-6-oxotetrahydro-2H-pyran-2-yl)ethyl)-3,7-dimethyl-1,2,3,7,8,8a-hexahydronaphthalen-1-yl (5-(2-((2-(2,6-dioxopiperidin-3-yl)-1,3-dioxoisoindolin-4-yl)oxy)acetamido)pentyl)carbamate] reads less than 50 nM; that for `C[C@H]1C=C2C=C[C@H](C)[C@H](CC[C@@H]3C[C@@H](O[Si](C)(C)C(C)(C)C)CC(=O)O3)[C@H]2[C@@H](OC(=O)NCCCCCCCC(=O)Nc2cccc3c2C(=O)N(C2CCC(=O)NC2=O)C3=O)C1` (stereo partly drawn) [Compound 76, (1S,3R,7S,8S,8aR)-8-(2-((2R,4R)-4-((tert-butyldimethylsilyl)oxy)-6-oxotetrahydro-2H-pyran-2-yl)ethyl)-3,7-dimethyl-1,2,3,7,8,8a-hexahydronaphthalen-1-yl (8-((2-(2,6-dioxopiperidin-3-yl)-1,3-dioxoisoindolin-4-yl)amino)-8-oxooctyl)carbamate], less than 50 nM; that for `C[C@H]1C=C2C=C[C@H](C)[C@H](CC[C@@H]3C[C@@H](O)CC(=O)O3)[C@H]2[C@@H](OC(=O)NCCCCCCCC(=O)Nc2cccc3c2C(=O)N(C2CCC(=O)NC2=O)C3=O)C1` (stereo partly drawn) [Compound 77, (1S,3R,7S,8S,8aR)-8-(2-((2R,4R)-4-hydroxy-6-oxotetrahydro-2H-pyran-2-yl)ethyl)-3,7-dimethyl-1,2,3,7,8,8a-hexahydronaphthalen-1-yl (8-((2-(2,6-dioxopiperidin-3-yl)-1,3-dioxoisoindolin-4-yl)amino)-8-oxooctyl)carbamate], less than 50 nM. On to `C[C@H]1C=C2C=C[C@H](C)[C@H](CC[C@@H]3C[C@@H](O[Si](C)(C)C(C)(C)C)CC(=O)O3)[C@H]2[C@@H](OC(=O)NCc2cccc(CNC(=O)COc3cccc4c3C(=O)N(C3CCC(=O)NC3=O)C4=O)c2)C1` (stereo partly drawn) [Compound 78, (1S,3R,7S,8S,8aR)-8-(2-((2R,4R)-4-((tert-butyldimethylsilyl)oxy)-6-oxotetrahydro-2H-pyran-2-yl)ethyl)-3,7-dimethyl-1,2,3,7,8,8a-hexahydronaphthalen-1-yl (3-((2-((2-(2,6-dioxopiperidin-3-yl)-1,3-dioxoisoindolin-4-yl)oxy)acetamido)methyl)benzyl)carbamate], for which the 50% degradation concentration (DC50) is less than 50 nM. With `C[C@H]1C=C2C=C[C@H](C)[C@H](CC[C@@H]3C[C@@H](O)CC(=O)O3)[C@H]2[C@@H](OC(=O)NCc2cccc(CNC(=O)COc3cccc4c3C(=O)N(C3CCC(=O)NC3=O)C4=O)c2)C1` (stereo partly drawn) [Compound 79, (1S,3R,7S,8S,8aR)-8-(2-((2R,4R)-4-hydroxy-6-oxotetrahydro-2H-pyran-2-yl)ethyl)-3,7-dimethyl-1,2,3,7,8,8a-hexahydronaphthalen-1-yl (3-((2-((2-(2,6-dioxopiperidin-3-yl)-1,3-dioxoisoindolin-4-yl)oxy)acetamido)methyl)benzyl)carbamate], the DC50 was less than 50 nM.

Regarding `C[C@H]1C=C2C=C[C@H](C)[C@H](CC[C@@H]3C[C@@H](O[Si](C)(C)C(C)(C)C)CC(=O)O3)[C@H]2[C@@H](OC(=O)NCCC2CCN(C(=O)COc3cccc4c3C(=O)N(C3CCC(=O)NC3=O)C4=O)CC2)C1` (stereo partly drawn) [Compound 80, (1S,3R,7S,8S,8aR)-8-(2-((2R,4R)-4-((tert-butyldimethylsilyl)oxy)-6-oxotetrahydro-2H-pyran-2-yl)ethyl)-3,7-dimethyl-1,2,3,7,8,8a-hexahydronaphthalen-1-yl (2-(1-(2-((2-(2,6-dioxopiperidin-3-yl)-1,3-dioxoisoindolin-4-yl)oxy)acetyl)piperidin-4-yl)ethyl)carbamate], the 50% degradation concentration (DC50) is less than 50 nM. With `C[C@H]1C=C2C=C[C@H](C)[C@H](CC[C@@H]3C[C@@H](O)CC(=O)O3)[C@H]2[C@@H](OC(=O)NCCC2CCN(C(=O)COc3cccc4c3C(=O)N(C3CCC(=O)NC3=O)C4=O)CC2)C1` (stereo partly drawn) [Compound 81, (1S,3R,7S,8S,8aR)-8-(2-((2R,4R)-4-hydroxy-6-oxotetrahydro-2H-pyran-2-yl)ethyl)-3,7-dimethyl-1,2,3,7,8,8a-hexahydronaphthalen-1-yl (2-(1-(2-((2-(2,6-dioxopiperidin-3-yl)-1,3-dioxoisoindolin-4-yl)oxy)acetyl)piperidin-4-yl)ethyl)carbamate], the DC50 is less than 50 nM. The result for `C[C@H]1C=C2C=C[C@H](C)[C@H](CC[C@@H]3C[C@@H](O[Si](C)(C)C(C)(C)C)CC(=O)O3)[C@H]2[C@@H](OC(=O)N(C)CCOCCOCCNc2cccc3c2C(=O)N(C2CCC(=O)NC2=O)C3=O)C1` (stereo partly drawn) [Compound 82, (1S,3R,7S,8S,8aR)-8-(2-((2R,4R)-4-((tert-butyldimethylsilyl)oxy)-6-oxotetrahydro-2H-pyran-2-yl)ethyl)-3,7-dimethyl-1,2,3,7,8,8a-hexahydronaphthalen-1-yl (2-(2-(2-((2-(2,6-dioxopiperidin-3-yl)-1,3-dioxoisoindolin-4-yl)amino)ethoxy)ethoxy)ethyl)(methyl)carbamate] reads less than 50 nM.

As to `C[C@H]1C=C2C=C[C@H](C)[C@H](CC[C@@H]3C[C@@H](O)CC(=O)O3)[C@H]2[C@@H](OC(=O)N(C)CCOCCOCCNc2cccc3c2C(=O)N(C2CCC(=O)NC2=O)C3=O)C1` (stereo partly drawn) [Compound 83, (1S,3R,7S,8S,8aR)-8-(2-((2R,4R)-4-hydroxy-6-oxotetrahydro-2H-pyran-2-yl)ethyl)-3,7-dimethyl-1,2,3,7,8,8a-hexahydronaphthalen-1-yl (2-(2-(2-((2-(2,6-dioxopiperidin-3-yl)-1,3-dioxoisoindolin-4-yl)amino)ethoxy)ethoxy)ethyl)(methyl)carbamate], the DC50 was less than 50 nM.
